Assay results reported in ChEMBL document CHEMBL4219147, “Design, synthesis, and structure-activity relationships of novel 4,7,12,12a-tetrahydro-5H-thieno[3',2':3,4]pyrido[1,2-b]isoquinoline and 5,8,12,12a-tetrahydro-6H-thieno[2',3':4,5]pyrido[2,1-a]isoquinoline derivatives as cellular activators of adenosine 5'-monophosphate-activated protein kinase …” (Bioorg Med Chem, 2018).
Activity calls are given as the source filed them. The calls are words filed in the database; no cut-off is given here.

Tests used:
L6 [1] = test: Activation of AMPK in differentiated Sprague-Dawley rat L6 myotube cells assessed as glucose consumption at 20 uM after 12 hrs by colorimetric assay (reference value: 100 +/- 1.8%); format: cell-based
L6 [2] = test: Activation of AMPK in differentiated Sprague-Dawley rat L6 myotube cells assessed as increase in glucose consumption at 10 uM after 12 hrs by colorimetric assay relative to control; format: cell-based
Rattus norvegicus [3] = species: Rattus norvegicus; test: Activation of AMPK in Sprague-Dawley rat primary hepatocytes assessed as inhibition of gluconeogenesis by measuring glucose production at 20 uM after 6 hrs by colorimetric assay (reference value: 100 +/- 3.5%); parameters: scale not given: the % may be the effect or the level left
L6 [4] = test: Activation of AMPK in Sprague-Dawley rat L6 myotube cells assessed as increase in acetyl-CoA carboxylase phosphorylation at Ser79 residues at 5 to 20 uM after 1 hr by Western blot analysis; format: cell-based
Rattus norvegicus [5] = species: Rattus norvegicus; test: Activation of AMPK in Sprague-Dawley rat primary hepatocytes assessed as inhibition of gluconeogenesis by measuring glucose production at 10 uM after 6 hrs by colorimetric assay (reference value: 100 +/- 3.5%); parameters: scale not given: the % may be the effect or the level left
[6] = Cytotoxicity against Sprague-Dawley rat L6 cells assessed as cell viability at 20 uM after 12 hrs by SRB assay (reference value: 100 +/- 1.8%); format: cell-based; settings: read-out: Activity
Rattus norvegicus [7] = species: Rattus norvegicus; test: Activation of AMPK in Sprague-Dawley rat primary hepatocytes assessed as inhibition of gluconeogenesis by measuring glucose production at 5 uM after 6 hrs by colorimetric assay (reference value: 100 +/- 3.5%); parameters: scale not given: the % may be the effect or the level left
Rattus norvegicus [8] = species: Rattus norvegicus; test: Activation of AMPK in Sprague-Dawley rat primary hepatocytes assessed as inhibition of gluconeogenesis by measuring glucose production after 6 hrs by colorimetric assay
L6 [9] = test: Inhibition of mitochondrial respiratory complex 1 in differentiated Sprague-Dawley rat L6 myotube cells assessed as mitochondrial membrane potential at 5 uM after 40 to 60 mins by JC-1 staining based fluorescence assay (reference value: 100 +/- 1.6%); format: cell-based; parameters: scale not given: the % may be the effect or the level left
L6 [10] = test: Inhibition of mitochondrial respiratory complex 1 in differentiated Sprague-Dawley rat L6 myotube cells assessed as mitochondrial membrane potential at 10 uM after 40 to 60 mins by JC-1 staining based fluorescence assay (reference value: 100 +/- 1.6%); format: cell-based; parameters: scale not given: the % may be the effect or the level left
L6 [11] = test: Upregulation of AMPKalpha phosphorylation at Thr172 residues in Sprague-Dawley rat L6 myotube cells at 5 to 20 uM after 1 hr by Western blot analysis; format: cell-based
L6 [12] = test: Activation of AMPK in differentiated Sprague-Dawley rat L6 myotube cells assessed as glucose consumption at 10 uM after 12 hrs by colorimetric assay (reference value: 100 +/- 1.8%); format: cell-based
[13] = Cytotoxicity against Sprague-Dawley rat L6 cells assessed as cell viability at 5 uM after 12 hrs by SRB assay (reference value: 100 +/- 1.8%); format: cell-based; settings: read-out: Activity
[14] = Cytotoxicity against Sprague-Dawley rat L6 cells assessed as cell viability at 10 uM after 12 hrs by SRB assay (reference value: 100 +/- 1.8%); format: cell-based; settings: read-out: Activity
L6 [15] = test: Activation of AMPK in differentiated Sprague-Dawley rat L6 myotube cells assessed as glucose consumption at 5 uM after 12 hrs by colorimetric assay (reference value: 100 +/- 1.8%); format: cell-based
L6 [16] = test: Inhibition of mitochondrial respiratory complex 1 in differentiated Sprague-Dawley rat L6 myotube cells assessed as mitochondrial membrane potential at 20 uM after 40 to 60 mins by JC-1 staining based fluorescence assay (reference value: 100 +/- 1.6%); format: cell-based; parameters: scale not given: the % may be the effect or the level left
L6 [17] = test: Activation of AMPK in Sprague-Dawley rat L6 myotube cells assessed as increase in acetyl-CoA carboxylase phosphorylation at Ser79 residues at 10 uM after 1 hr by Western blot analysis; format: cell-based
L6 [18] = test: Upregulation of AMPKalpha phosphorylation at Thr172 residues in Sprague-Dawley rat L6 myotube cells at 10 uM after 1 hr by Western blot analysis; format: cell-based

Row | Compound | Activity (Rattus norvegicus [3]) | Activity (Rattus norvegicus [5]) | Activity (Rattus norvegicus [7]) | inhibition (Rattus norvegicus [8]) | Activity (L6 [1]) | fold change (FC) (L6 [2]) | Activity (L6 [4]) | viability at 12 h, 20 µM [6] | Activity (L6 [9]) | Activity (L6 [10]) | Activity (L6 [11]) | Activity (L6 [12]) | viability at 12 h, 5 µM [13] | viability at 12 h, 10 µM [14] | Activity (L6 [15]) | Activity (L6 [16]) | Activity (L6 [17]) | Activity (L6 [18])
1 | CCCCc1cc2c(s1)CC1c3cc4c(cc3CCN1C2)OCO4 (centres undefined) | 53.7% | 55.6% | 58.3% | Dose-dependent effect | 285% | 2.9 | Active | 97.7% | 75.1% | 68.9% | Active | 287% | 102% | 98.8% | 265% | 57.5% | – | –
2 | CCc1cc2c(s1)CC1c3cc4c(cc3CCN1C2)OCO4 (centres undefined) | – | – | – | – | 227% | 2.2 | – | 102% | – | – | – | 219% | 99.5% | 102% | 212% | – | – | –
3 | c1cc2c(s1)CC1c3cc4c(cc3CCN1C2)OCO4 (centres undefined) | – | – | – | – | 133% | 1.3 | – | 102% | – | – | – | 134% | 98.6% | 99.7% | 132% | – | – | –

Further lines, with some results ahead:

Row | Activity (Rattus norvegicus [3]) | Activity (Rattus norvegicus [5]) | Activity (Rattus norvegicus [7]) | inhibition (Rattus norvegicus [8]) | Compound | Activity (L6 [1]) | fold change (FC) (L6 [2]) | Activity (L6 [4]) | viability at 12 h, 20 µM [6] | Activity (L6 [9]) | Activity (L6 [10]) | Activity (L6 [11]) | Activity (L6 [12]) | viability at 12 h, 5 µM [13] | viability at 12 h, 10 µM [14] | Activity (L6 [15]) | Activity (L6 [16]) | Activity (L6 [17]) | Activity (L6 [18])
4 | 40.9% | 48.2% | 59.5% | Dose-dependent effect | c1ccc(Cc2cc3c(s2)CC2c4cc5c(cc4CCN2C3)OCO5)cc1 (centres undefined) | 264% | 2.4 | Active | 101% | 98.2% | 90.7% | Active | 242% | 102% | 101% | 194% | 79.7% | – | –
5 | – | – | 57.6% | – | COc1ccc2cc3[n+](cc2c1OC)CCc1cc2c(cc1-3)OCO2 [BERBERINE CHLORIDE] | – | – | – | – | 91.5% | 85.8% | – | 228% | – | 100% | – | 84.5% | Active | Active
